According to US11981640B1, “4,5-bis(4-chlorophenyl)-1-hexyl-2-(3-hydroxy-4-methoxyphenyl)-1H-imidazole as an antimicrobial compound” (KING FAISAL UNIVERSITY, priority 2023, dated 2024):

Key:
Assay type in all cases: cell-based
Conditions in all cases: after 10, 20, 40 and 60 minutes at all dilutions 1:100, 1:200, 1:400, 1:800
Escherichia coli = assay: Antimicrobial testing by agar dilution, Escherichia coli
Protocol: (§1) The antimicrobial properties of the 4,5-bis(4-chlorophenyl)-1-hexyl-2-(3-hydroxy-4-methoxyphenyl)-1H-imidazole (5) were studied by the method of agar dilution. Test solutions of each compound were prepared in concentration of 1% using dimethylformamide as a solvent then they are diluted in physiological solution to obtain the final experimental dilutions 1:100, 1:200, 1:400, 1:800. The effect of these substances were compared with furacillin in a controllable study. The testing microbes used were gram positive bacteria Staphylococcus aureus, gram negative bacteria Escherichia coli, Pseudomonas aeruginosa and Candida albicans fungi were taken. The experiments used for this survey were meat-pentonlu agar (EPA) for cultivation of bacteria and Saburo environment for fungi. Each experiment used 1 ml of test solution on each plate 500 min. Add 2 drops of emulsified with microbes feel. All experimental samples were taken from the agar after 10, 20, 40, 60 minutes in the environment on the basis of Patrk planted. Bacteria were cultivated at a temperature of 37° C. for 1 day and the mushroom was kept in a thermostat for 2 hours at a temperature of 28° C. in the. Then results were checked.

Pseudomonas aeruginosa = assay: Antimicrobial testing by agar dilution, Pseudomonas aeruginosa
Protocol: as §1

Staphylococcus aureus = assay: Antimicrobial testing by agar dilution, Staphylococcus aureus
Protocol: as §1

Candida albicans = assay: Antimicrobial testing by agar dilution, Candida albicans
Protocol: as §1

CCCCCCn1c(-c2ccc(OC)c(O)c2)nc(-c2ccc(Cl)cc2)c1-c1ccc(Cl)cc1 [4,5-bis(4-chlorophenyl)-1-hexyl-2-(3-hydroxy-4-methoxyphenyl)-1H-imidazole]
highest inhibition activity: inhibition activity, Escherichia coli (Escherichia coli) | inhibition activity, Pseudomonas aeruginosa (Pseudomonas aeruginosa) | inhibition activity, Staphylococcus aureus (Staphylococcus aureus) | inhibition activity, Candida albicans (Candida albicans)
